Measured values published in patent US20230085307A1, “PYRIDAZINONE COMPOUND AND HERBICIDE” (NISSAN CHEMICAL CORPORATION, priority 2019, published 2023).

Legend:
Italian ryegrass [1] = test: Test Example 4: herbicidal effect by soil treatment (Table 19, symbol K); format: in vivo, Italian ryegrass (Lolium multiflorum); conditions: for herbicidal effect rating, K: Italian ryegrass: 320 g/ha
Procedure, shortened: (§1)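 Step 1: sow seeds in sterilized diluvial soil, cover ~1.5 cm. Step 2: spray diluted emulsion onto soil surface at predetermined rate. Step 3: greenhouse, 25–30° C, three weeks. Step 4: grade effect on each plant by earlier criteria.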

chickweed = test: Test Example 4: herbicidal effect by soil treatment (Table 19, symbol P); format: in vivo, common chickweed (Stellaria media); conditions: for herbicidal effect rating, P: chickweed: 320 g/ha
Procedure, shortened: as §1

rice flat sedge = test: Test Example 3: herbicidal effect by foliage application, Wagner pot (Table 18, symbol E); format: in vivo, rice flat sedge (Cyperus iria)
Procedure, shortened: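 Plants were sown in alluvial soil held under 0.1–0.5 cm standing water and grown 14 days in a greenhouse at 25–30 °C. An emulsifiable formulation, water-diluted to the set dose, was then sprayed onto the foliage, and effects were scored three weeks later using previously defined criteria.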

wild oat [2] = test: Test Example 4: herbicidal effect by soil treatment (Table 19, symbol I); format: in vivo, wild oat (Avena fatua); conditions: for herbicidal effect rating, I: wild oat: 320 g/ha
Procedure, shortened: as §1

late watergrass = test: Test Example 2: herbicidal activity, application during weed generation under submerged conditions (Table 17, symbol A); format: in vivo, late watergrass (Echinochloa oryzicola); conditions: application during weed generation, submerged conditions
Procedure, shortened: (§2)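 3-wk visual-criteria score after one water-surface dose. Emulsion formulation, water-diluted to set rate; applied at 1–2 leaf stage; alluvial soil, 4 cm standing water; seeds co-sown; greenhouse 25–30° C.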

wild oat [3] = test: Test Example 5: herbicidal effect by foliage application, plastic box (Table 20, symbol I); format: in vivo, wild oat (Avena fatua); conditions: foliage application, 3 weeks after application
Procedure, shortened: (§3)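 Foliar spray test: emulsion formulation diluted in water to a set application rate, sprayed onto 14-day-old plants raised in diluvial soil at 25° C to 30° C under glass. Both herbicidal effect and crop effect rated visually three weeks later.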

oval-leafed pondweed [4] = test: Test Example 1: herbicidal activity, application before weed generation under submerged conditions (Table 16, symbol C); format: in vivo, oval-leafed pondweed (Monochoria vaginalis)
Procedure, shortened: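 Alluvial soil was flooded to 4 cm depth, weed seeds were sown mixed and 2.5-leaf rice seedlings were transplanted. On sowing day, the compound's emulsion, diluted in water to a set dose, was applied to the water surface. Plants grew at 25–30 °C and were scored 0–5 after three weeks.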

blackgrass = test: Test Example 4: herbicidal effect by soil treatment (Table 19, symbol J); format: in vivo, blackgrass (Alopecurus myosuroides); conditions: for herbicidal effect rating, J: blackgrass: 320 g/ha
Procedure, shortened: as §1

southern crabgrass = test: Test Example 5: herbicidal effect by foliage application, plastic box (Table 20, symbol F); format: in vivo, southern crabgrass (Digitaria ciliaris); conditions: foliage application, 3 weeks after application
Procedure, shortened: as §3

velvetleaf [5] = test: Test Example 4: herbicidal effect by soil treatment (Table 19, symbol M); format: in vivo, velvetleaf (Abutilon theophrasti); conditions: for herbicidal effect rating, M: velvetleaf: 320 g/ha
Procedure, shortened: as §1

green foxtail [6] = test: Test Example 4: herbicidal effect by soil treatment (Table 19, symbol G); format: in vivo, green foxtail (Setaria viridis); conditions: for herbicidal effect rating, G: green foxtail: 320 g/ha
Procedure, shortened: as §1

green foxtail [7] = test: Test Example 5: herbicidal effect by foliage application, plastic box (Table 20, symbol G); format: in vivo, green foxtail (Setaria viridis); conditions: foliage application, 3 weeks after application
Procedure, shortened: as §3

Italian ryegrass [8] = test: Test Example 5: herbicidal effect by foliage application, plastic box (Table 20, symbol K); format: in vivo, Italian ryegrass (Lolium multiflorum); conditions: foliage application, 3 weeks after application
Procedure, shortened: as §3

oval-leafed pondweed [9] = test: Test Example 2: herbicidal activity, application during weed generation under submerged conditions (Table 17, symbol C); format: in vivo, oval-leafed pondweed (Monochoria vaginalis); conditions: application during weed generation, submerged conditions
Procedure, shortened: as §2

redroot pigweed = test: Test Example 4: herbicidal effect by soil treatment (Table 19, symbol N); format: in vivo, redroot pigweed (Amaranthus retroflexus); conditions: for herbicidal effect rating, N: redroot pigweed: 320 g/ha
Procedure, shortened: as §1

velvetleaf [10] = test: Test Example 5: herbicidal effect by foliage application, plastic box (Table 20, symbol M); format: in vivo, velvetleaf (Abutilon theophrasti); conditions: foliage application, 3 weeks after application
Procedure, shortened: as §3

persian speedwell = test: Test Example 5: herbicidal effect by foliage application, plastic box (Table 20, symbol R); format: in vivo, Persian speedwell (Veronica persica); conditions: foliage application, 3 weeks after application
Procedure, shortened: as §3

SMILES | herbicidal effect on E (rice flat sedge), rating 0-5 (rice flat sedge; 320 g/ha) | herbicidal effect rating, A: late watergrass (late watergrass; AAH 320 g/ha) | effect on wild oat (I) (wild oat [3]; 320 g/ha) | Herbicidal effect on C: oval-leafed pondweed (grade 0-5) (oval-leafed pondweed [4]; 320 g/ha applied herbicide) | effect on southern crabgrass (F) (southern crabgrass; 320 g/ha) | effect on green foxtail (G) (green foxtail [7]; 320 g/ha) | effect on Italian ryegrass (K) (Italian ryegrass [8]; 320 g/ha) | herbicidal effect rating, C: oval-leafed pondweed (oval-leafed pondweed [9]; AAH 320 g/ha) | effect on velvetleaf (M) (velvetleaf [10]; 320 g/ha) | effect on persian speedwell (R) (persian speedwell; 320 g/ha) | herbicidal effect rating, K: Italian ryegrass (Italian ryegrass [1]) | herbicidal effect rating, P: chickweed (chickweed) | herbicidal effect rating, I: wild oat (wild oat [2]) | herbicidal effect rating, J: blackgrass (blackgrass) | herbicidal effect rating, M: velvetleaf (velvetleaf [5]) | herbicidal effect rating, G: green foxtail (green foxtail [6]) | herbicidal effect rating, N: redroot pigweed (redroot pigweed) | further results
Cc1nn(C)c(=O)c(-c2c(-c3ccc(OCCC4OCCO4)cc3)sc3ccccc23)c1O [1-223] |  |  |  |  |  |  |  |  |  |  |  |  |  |  |  |  |  | K: Italian ryegrass, herbicidal effect rating (Italian ryegrass [1]; AAH 246 g/ha): 0 (Herbicidal rate of 5% or less (almost no effect)); P: chickweed, herbicidal effect rating (chickweed; AAH 246 g/ha): 0 (Herbicidal rate of 5% or less (almost no effect)); herbicidal effect on E (rice flat sedge), rating 0-5 (rice flat sedge; 246 g/ha): 4 (Herbicidal rate of 70% or more and less than 90%); I: wild oat, herbicidal effect rating (wild oat [2]; AAH 246 g/ha): 0 (Herbicidal rate of 5% or less (almost no effect)); herbicidal effect rating, A: late watergrass (late watergrass; AAH 246 g/ha): 3 (Herbicidal rate of 40% or more and less than 70%); effect on wild oat (I) (wild oat [3]; 246 g/ha): 3 (Herbicidal rate of 40% or more and less than 70%); Herbicidal effect on C: oval-leafed pondweed (grade 0-5) (oval-leafed pondweed [4]; 246 g/ha applied herbicide): 4 (Herbicidal rate of 70% or more and less than 90%); J: blackgrass, herbicidal effect rating (blackgrass; AAH 246 g/ha): 0 (Herbicidal rate of 5% or less (almost no effect)); effect on southern crabgrass (F) (southern crabgrass; 246 g/ha): 4 (Herbicidal rate of 70% or more and less than 90%); M: velvetleaf, herbicidal effect rating (velvetleaf [5]; AAH 246 g/ha): 0 (Herbicidal rate of 5% or less (almost no effect)); G: green foxtail, herbicidal effect rating (green foxtail [6]; AAH 246 g/ha): 2 (Herbicidal rate of 20% or more and less than 40%); effect on green foxtail (G) (green foxtail [7]; 246 g/ha): 5 (Herbicidal rate of 90% or more (almost completely withered)); effect on Italian ryegrass (K) (Italian ryegrass [8]; 246 g/ha): 3 (Herbicidal rate of 40% or more and less than 70%); herbicidal effect rating, C: oval-leafed pondweed (oval-leafed pondweed [9]; AAH 246 g/ha): 3 (Herbicidal rate of 40% or more and less than 70%); N: redroot pigweed, herbicidal effect rating (redroot pigweed; AAH 246 g/ha): 4 (Herbicidal rate of 70% or more and less than 90%); effect on velvetleaf (M) (velvetleaf [10]; 246 g/ha): 5 (Herbicidal rate of 90% or more (almost completely withered)); effect on persian speedwell (R) (persian speedwell; 246 g/ha): 5 (Herbicidal rate of 90% or more (almost completely withered))
CSCCSCc1ccc(-c2sc3ccccc3c2-c2c(O)c(C)nn(C)c2=O)cc1 [1-253] | 3 (Herbicidal rate of 40% or more and less than 70%) | 3 (Herbicidal rate of 40% or more and less than 70%) | 0 (Herbicidal rate of 5% or less (almost no effect)) | 0 (Herbicidal rate of 5% or less (almost no effect)) | 1 (Herbicidal rate of 5% or more and less than 20%) | 3 (Herbicidal rate of 40% or more and less than 70%) | 4 (Herbicidal rate of 70% or more and less than 90%) | 0 (Herbicidal rate of 5% or less (almost no effect)) | 5 (Herbicidal rate of 90% or more (almost completely withered)) | 5 (Herbicidal rate of 90% or more (almost completely withered)) |  |  |  |  |  |  |  | K: Italian ryegrass, herbicidal effect rating (Italian ryegrass [1]; AAH 320 g/ha): 0 (Herbicidal rate of 5% or less (almost no effect)); P: chickweed, herbicidal effect rating (chickweed; AAH 320 g/ha): 3 (Herbicidal rate of 40% or more and less than 70%); I: wild oat, herbicidal effect rating (wild oat [2]; AAH 320 g/ha): 0 (Herbicidal rate of 5% or less (almost no effect)); J: blackgrass, herbicidal effect rating (blackgrass; AAH 320 g/ha): 0 (Herbicidal rate of 5% or less (almost no effect)); M: velvetleaf, herbicidal effect rating (velvetleaf [5]; AAH 320 g/ha): 0 (Herbicidal rate of 5% or less (almost no effect)); G: green foxtail, herbicidal effect rating (green foxtail [6]; AAH 320 g/ha): 0 (Herbicidal rate of 5% or less (almost no effect)); N: redroot pigweed, herbicidal effect rating (redroot pigweed; AAH 320 g/ha): 3 (Herbicidal rate of 40% or more and less than 70%)
Cc1ccc(-c2sc3ccc(F)cc3c2-c2c(O)c(C)nn(C)c2=O)cc1 [2-012] | 5 (Herbicidal rate of 90% or more (almost completely withered)) | 3 (Herbicidal rate of 40% or more and less than 70%) | 0 (Herbicidal rate of 5% or less (almost no effect)) | 0 (Herbicidal rate of 5% or less (almost no effect)) | 5 (Herbicidal rate of 90% or more (almost completely withered)) | 5 (Herbicidal rate of 90% or more (almost completely withered)) | 4 (Herbicidal rate of 70% or more and less than 90%) | 0 (Herbicidal rate of 5% or less (almost no effect)) | 5 (Herbicidal rate of 90% or more (almost completely withered)) | 5 (Herbicidal rate of 90% or more (almost completely withered)) | 4 (Herbicidal rate of 70% or more and less than 90%) | 4 (Herbicidal rate of 70% or more and less than 90%) | 0 (Herbicidal rate of 5% or less (almost no effect)) | 0 (Herbicidal rate of 5% or less (almost no effect)) | 4 (Herbicidal rate of 70% or more and less than 90%) | 5 (Herbicidal rate of 90% or more (almost completely withered)) | 5 (Herbicidal rate of 90% or more (almost completely withered)) | 
CCCC(=O)Oc1c(C)nn(C)c(=O)c1-c1c(-c2ccc(C)cc2)sc2ccc(F)cc12 [2-013] | 5 (Herbicidal rate of 90% or more (almost completely withered)) | 4 (Herbicidal rate of 70% or more and less than 90%) | 0 (Herbicidal rate of 5% or less (almost no effect)) | 2 (Herbicidal rate of 20% or more and less than 40%) | 5 (Herbicidal rate of 90% or more (almost completely withered)) | 5 (Herbicidal rate of 90% or more (almost completely withered)) | 4 (Herbicidal rate of 70% or more and less than 90%) | 3 (Herbicidal rate of 40% or more and less than 70%) | 5 (Herbicidal rate of 90% or more (almost completely withered)) | 5 (Herbicidal rate of 90% or more (almost completely withered)) | 4 (Herbicidal rate of 70% or more and less than 90%) | 3 (Herbicidal rate of 40% or more and less than 70%) | 0 (Herbicidal rate of 5% or less (almost no effect)) | 3 (Herbicidal rate of 40% or more and less than 70%) | 3 (Herbicidal rate of 40% or more and less than 70%) | 5 (Herbicidal rate of 90% or more (almost completely withered)) | 4 (Herbicidal rate of 70% or more and less than 90%) | 
